Measured values published in ChEMBL document CHEMBL3217624, “Probing androgen receptor co-factor selectivity profiles: a chemical tool to determine cross-talk between androgen receptor and -catenin in vivo” (Medchemcomm, 2013).
Activity calls are given as the source filed them. The calls are words filed in the database; no cut-off is given here.

What was measured:
Rattus norvegicus [1] = test: Androgenic activity in ORX rat model assessed as reduction in plasma luteinizing hormone level at 10 mg/kg, sc qd after 11 days relative to sham control; format: functional, organism-based; set-up: dose 10 mg/kg
Androgen receptor [2] = target: T1, Androgen receptor (Homo sapiens, UniProt P10275); test: Agonist activity at human AR expressed in African green monkey CV1 cells after 17 hrs by ARE-driven luciferase reporter gene assay; format: cell-based, CV-1
T1 sequence (P10275 whole entry): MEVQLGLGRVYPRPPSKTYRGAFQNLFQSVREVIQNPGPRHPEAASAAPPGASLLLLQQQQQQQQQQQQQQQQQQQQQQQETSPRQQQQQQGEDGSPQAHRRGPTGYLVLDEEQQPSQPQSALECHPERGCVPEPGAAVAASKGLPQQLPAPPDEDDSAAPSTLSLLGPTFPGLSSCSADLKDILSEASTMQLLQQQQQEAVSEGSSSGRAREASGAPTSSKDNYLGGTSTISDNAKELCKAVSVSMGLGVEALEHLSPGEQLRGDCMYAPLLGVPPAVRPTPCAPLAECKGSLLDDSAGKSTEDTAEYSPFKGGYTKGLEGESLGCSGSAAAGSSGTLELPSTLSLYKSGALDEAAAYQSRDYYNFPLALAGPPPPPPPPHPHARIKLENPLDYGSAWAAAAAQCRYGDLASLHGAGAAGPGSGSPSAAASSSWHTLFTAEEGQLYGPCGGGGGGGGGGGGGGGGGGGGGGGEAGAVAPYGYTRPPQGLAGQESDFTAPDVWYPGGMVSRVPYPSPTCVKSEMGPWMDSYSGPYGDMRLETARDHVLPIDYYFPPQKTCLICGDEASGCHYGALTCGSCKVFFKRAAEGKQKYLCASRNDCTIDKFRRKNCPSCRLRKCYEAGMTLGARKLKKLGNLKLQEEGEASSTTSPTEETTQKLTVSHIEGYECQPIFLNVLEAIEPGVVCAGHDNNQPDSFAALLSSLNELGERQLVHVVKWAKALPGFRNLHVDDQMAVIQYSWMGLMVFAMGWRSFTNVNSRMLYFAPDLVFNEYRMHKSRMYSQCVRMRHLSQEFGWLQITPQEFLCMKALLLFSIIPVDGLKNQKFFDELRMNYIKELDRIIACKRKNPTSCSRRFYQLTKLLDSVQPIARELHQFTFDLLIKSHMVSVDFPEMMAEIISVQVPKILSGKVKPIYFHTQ

Rattus norvegicus [3] = test: Androgenic activity in ORX rat model assessed as reduction in plasma luteinizing hormone level at 30 mg/kg, sc qd after 11 days relative to sham control; format: functional, organism-based; set-up: dose 30 mg/kg
Rattus norvegicus [4] = test: Androgenic activity in ORX rat model assessed as restoration of hepatic hydroxyacid oxidase2 expression at 10 to 30 mg/kg, sc qd after 11 days by RT-PCR analysis relative to sham control; format: functional; details: dose mg/kg 10-30; route subcutaneous
Rattus norvegicus [5] = test: Androgenic activity in ORX rat model assessed as effect on seminal vesicle weight at 3 to 30 mg/kg, sc qd after 11 days relative to sham control; format: functional, organism-based
Androgen receptor [6] = target: T1, Androgen receptor; test: Displacement of [3H]mibolerone from human AR expressed in COS cells after 3.5 hrs by liquid scintillation counting analysis; format: cell-based
Rattus norvegicus [7] = test: Androgenic activity in ORX rat model assessed as reduction in plasma luteinizing hormone level at 3 mg/kg, sc qd after 11 days relative to sham control; format: functional, organism-based; set-up: dose 3 mg/kg
[8] = target: T2, Androgen receptor (Homo sapiens) (UniProt P10275); test: Agonist activity at human AR expressed in African green monkey CV1 cells assessed as supression of beta-catenin at 1000 nM after 17 hrs by Wnt 12xTcf-luciferase reporter gene assay relative to control; format: cell-based; details: CV-1
T2 sequence (whole entry): T1 sequence (P10275 whole entry)

Rattus norvegicus [9] = test: Androgenic activity in sc dosed ORX rat model assessed as increase in hepatic carnitine palmitoyltransferase1 expression after 11 days by RT-PCR analysis relative to sham control; format: functional
Rattus norvegicus [10] = test: Androgenic activity in ORX rat model assessed as increase in levator ani muscle weight at 1 mg/kg, sc qd after 11 days relative to sham control; format: functional, organism-based; set-up: dose 1 mg/kg
Rattus norvegicus [11] = test: Androgenic activity in ORX rat model assessed as increase in seminal vesicle weight at 1 mg/kg, sc qd after 11 days relative to sham control; format: functional, organism-based; set-up: dose 1 mg/kg
Rattus norvegicus [12] = test: Androgenic activity in ORX rat model assessed as increase in hepatic carnitine palmitoyltransferase1 expression at 1 mg/kg, sc qd after 11 days by RT-PCR analysis relative to sham control; format: functional; details: route subcutaneous
Rattus norvegicus [13] = test: Androgenic activity in ORX rat model assessed as increase in prostate weight at 1 mg/kg, sc qd after 11 days relative to sham control; format: functional, organism-based; set-up: dose 1 mg/kg; details: Prostate gland
Rattus norvegicus [14] = test: Androgenic activity in ORX rat model assessed as restoration of hepatic hydroxyacid oxidase2 expression at 1 mg/kg, sc qd after 11 days by RT-PCR analysis relative to sham control; format: functional, organism-based; set-up: dose 1 mg/kg
Rattus norvegicus [15] = test: Androgenic activity in ORX rat model assessed as reduction in plasma luteinizing hormone level at 1 mg/kg, sc qd after 11 days relative to sham control; format: functional, organism-based; set-up: dose 1 mg/kg

| Compound | Activity (Rattus norvegicus [1]) | EC50 (Androgen receptor [2]) [nM] | Activity (Rattus norvegicus [3]) | fold change (FC) (Rattus norvegicus [4]) | Activity (Rattus norvegicus [5]) | IC50 (Androgen receptor [6]) [nM] | Activity (Rattus norvegicus [7]) | Activity [8] [%] | Activity (Rattus norvegicus [9]) | fold change (FC) (Rattus norvegicus [9]) | Activity (Rattus norvegicus [10]) | Activity (Rattus norvegicus [11]) | fold change (FC) (Rattus norvegicus [12]) | Activity (Rattus norvegicus [13]) | Activity (Rattus norvegicus [14]) | Activity (Rattus norvegicus [15]) |
| --- | --- | --- | --- | --- | --- | --- | --- | --- | --- | --- | --- | --- | --- | --- | --- | --- |
| CN1C(=O)C(F)=C[C@]2(C)[C@H]3CC[C@]4(C)[C@@H](C(=O)NCc5nc6cccnc6[nH]5)CC[C@H]4[C@@H]3CC[C@@H]12 [MK-0773] | Active | 144 | inactive | 2.5 | inactive | 196 | inactive | 32 | Dose-dependent effect | 2 | – | – | – | – | – | – |
| CCC(=O)O[C@H]1CC[C@H]2[C@@H]3CCC4=CC(=O)CC[C@]4(C)[C@H]3CC[C@]12C [TESTOSTERONE PROPIONATE] | – | – | – | – | – | 18 | – | – | – | – | Active | Active | 2 | Active | Active | Active |
